Source: patent US20240307350A1, “5-METHOXY-N,N-DIMETHYLTRYPTAMINE (5-MEO-DMT) FOR TREATING DEPRESSION” (GH RESEARCH IRELAND LIMITED, priority 2019, published 2024)

System: patients with treatment-resistant major depressive disorder
Assay: Clinical trial in treatment-resistant major depressive disorder: intensity of the psychedelic effects (MEQ30, ASC, PPEQ)
Assay type: in vivo, human
Details: for ASC Oceanic Boundlessness (0-2700) / MEQ30 Ineffability (0 to 5) / MEQ30 Mystical (0 to 5) / MEQ30 Positive Mood (0 to 5) / MEQ30 Total Score Average (0 to 5) / MEQ30 Transcendence Time/Space (0 to 5) / PPEQ Intensity (0-100) / PPEQ Loss of Control (0-100) / PPEQ Profoundness (0-100) / PPEQ Total Score (0-100) / PPEQ PPE achieved / MEQ30 PPE achieved / ASC PPE achieved: 12 mg inhaled; for PPEQ PPE achieved: PPEQ Total Score of at least 75; for MEQ30 PPE achieved: at least 60% of the maximum possible score in each of the four subscales; for ASC PPE achieved: at least 60% of the maximum possible score of Oceanic Boundlessness
Source text: The occurrence of a “peak psychedelic experience” in a patient can be identified through achievement of at least 60% of the maximum possible score in each of the four subscales (mystical, positive mood, transcendence of time and space, and ineffability) of the 30-item revised Mystical Experience Questionnaire (MEQ30) (as described in Barrett F S, J Psychopharmacol. 2015; 29(11):1182-90; Score items shown in Example 4).
The occurrence of a “peak psychedelic experience” in a patient can also be identified through achievement of at least 60% of the maximum possible score of the Oceanic Boundlessness (OBN) dimension of the Altered States of Consciousness (ASC) questionnaire (as described in Roseman L et al., Front Pharmacol. 2018; 8:974).
The occurrence of a “peak psychedelic experience” in a patient can also be identified through achievement of a score of at least 75 in the Peak Psychedelic Experience Questionnaire (PPEQ) Total Score, which averages answers scored by the patient from 0 to 100 for the following three questions: 1. How intense was the experience; 2. To what extent did you lose control; 3. How profound (i.e. deep and significant) was the experience?
A clinical trial was performed in which 5-MeO-DMT free base (purity not less than 99%) was administered to patients with treatment-resistant major depressive disorder (TRD). The objectives of the study were to assess the safety and tolerability, the dose-related psychedelic effects and the effects on various measures of depression of single-day dosing of 5-MeO-DMT. The trial was reviewed and approved by the relevant national competent authority and local medical ethics committee. Patients recruited into the trial had to meet the Diagnostic and Statistical Manual of Mental Disorders-Fifth Edition (DSM-5) diagnostic criteria for single-episode or recurrent major depressive disorder and had to be treatment-resistant, both aspects as evaluated by a psychiatrist or registered psychologist. Patients who were using any psychoactive medication or substance (such as anti-depressive medication) had to discontinue such medication or substance and had to observe a wash-out period before the 5-MeO-DMT administration. On the administration day, a single dose of 12 mg 5-MeO-DMT was administered to the patients via a single inhalation as described in Example 1A. Patients were closely monitored for 3.5 hours after administration, with additional follow-up visits 1 day and 7 days after dosing. Various safety related measures (e.g., adverse event reporting, safety laboratory analyses, vital signs, electrocardiogram (ECG), Clinician Administered Dissociative States Scale (CADSS), Psychomotor Vigilance Test (PVT), Digit Symbol Substitution Test (DSST)), measures of the intensity of the psychedelic effects (e.g., Peak Psychedelic Experience Questionnaire (PPEQ), Altered States of Consciousness (ASC) Questionnaire, Mystical Experience Questionnaire (MEQ30), subjective description of the psychedelic experience), measures of depression severity (Montgomery-Åsberg Depression Rating Scale (MADRS), Patient's Global Impression of Severity scale (PGI-S), Patient's Global Impression of Improvement scale (PGI-I)), and additional psychological measures (e.g., Columbia-Suicide Severity Rating Scale (C-SSRS), Brief Psychiatric Rating Scale (BPRS)) were recorded at different time points. Psychological support via a psychologist and/or psychiatrist was available to the patients throughout the study, but no specific psychotherapy was applied, and no additional psychoactive medication was provided.
The score for each individual subscale is computed by calculating the average score (from the scale of 0 to 5) for the phenomena belonging to the subscale as listed below.
The MEQ30-total score is computed by taking the average response to all phenomena. […]

SMILES: COc1ccc2[nH]cc(CCN(C)C)c2c1 [5-MeO-DMT, 5-methoxy-N,N-dimethyltryptamine]
- ASC Oceanic Boundlessness (0-2700) (Patient 1): 1696
- MEQ30 Ineffability (0 to 5) (Patient 1): 4.7
- MEQ30 Mystical (0 to 5) (Patient 1): 3.5
- MEQ30 Positive Mood (0 to 5) (Patient 1): 4.5
- MEQ30 Total Score Average (0 to 5) (Patient 1): 3.8
- MEQ30 Transcendence Time/Space (0 to 5) (Patient 1): 3.7
- PPEQ Intensity (0-100) (Patient 1): 94
- PPEQ Loss of Control (0-100) (Patient 1): 45
- PPEQ Profoundness (0-100) (Patient 1): 87
- PPEQ Total Score (0-100) (Patient 1): 75.3
- PPEQ PPE achieved (Patient 1): Yes
- MEQ30 PPE achieved (Patient 1): Yes
- ASC PPE achieved (Patient 1): Yes
- ASC Oceanic Boundlessness (0-2700) (Patient 2): 1297
- MEQ30 Ineffability (0 to 5) (Patient 2): 3.3
- MEQ30 Mystical (0 to 5) (Patient 2): 3.1
- MEQ30 Positive Mood (0 to 5) (Patient 2): 4.0
- MEQ30 Total Score Average (0 to 5) (Patient 2): 3.4
- MEQ30 Transcendence Time/Space (0 to 5) (Patient 2): 3.5
- PPEQ Intensity (0-100) (Patient 2): 100
- PPEQ Loss of Control (0-100) (Patient 2): 58
- PPEQ Profoundness (0-100) (Patient 2): 80
- PPEQ Total Score (0-100) (Patient 2): 79.3
- PPEQ PPE achieved (Patient 2): Yes
- MEQ30 PPE achieved (Patient 2): Yes
- ASC PPE achieved (Patient 2): No
- duration of the psychedelic experience as judged by an external observer (patient 1, single dose of 12 mg via inhalation): 16 min
- duration of the psychedelic experience as judged by an external observer (patient 2, single dose of 12 mg via inhalation): 40 min
- first psychedelic symptoms after the inhalation (onset) (single dose of 12 mg via inhalation, both patients): within a few seconds
